# Assay results as given in patent US20080076772A1, “Anti-Inflammatory Agents” (Pharma Mar S.A. Sociedad Unipersonal, priority 2004, published 2008).
# Key:
# [1] = tested on: blood monocytes; test: in vitro; settings: 48 h
# Method: Purified populations of human blood monocytes were prepared as previously described by differential density centrifugation on Ficoll and Percoll gradients (see Allavena, P., Piemonti, L., Longoni, D., Bernasconi, S., Stoppacciaro, A., Ruco, L., and Mantovani, A. IL-10 prevents the differentiation of monocytes to dendritic cells but promotes their maturation to macrophages. Eur J Immunol, 28: 359-369, 1998). […] Human thymocytes were isolated from resected thymus from pediatric patients undergoing surgery. Thymocytes were obtained by teasing and isolated on Percoll gradient.
# Cells were cultured at 10^6 cells/ml in complete medium RPMI (Biochrom, Berlin, FRG)+10% FCS (Hyclone, Logan, Utah). In vitro differentiated macrophages were obtained by culture of monocytes Monocyte-Colony Stimulating Factor (M-CSF) Peprotech (20 ng/ml), for 5 days. In some experiments, macrophages were treated with LPS (100 ng/ml) Sigma Aldrich, IFN gamma (500 IU/ml) or IL-4 (20 ng/ml) (Schering Plough) for 24 h.
# Cell viability was analyzed by DNA content in Flow Cytometry
# Cells exposed to treatments were fixed with ethanol 70%, washed in PBS and stained with propidium iodide (PI) solution containing 10 ug/ml PI in PBS and 25 μl RNAse 10,000 units, overnight in the dark. PI incorporation was evaluated on at least 20,000 cells/sample using a FACS Calibur instrument (Becton Dickinson, Sunnyvale, Calif., USA), with a bandpass filter at 620 nm. Apoptosis was detected by staining with AnnexinV and PI. FACS analysis was performed using a bandpass filter 530 and 620 nm for green (AnnexinV) and red (PI) fluorescence respectively, in combination with a […] dichroic mirror.
# Purified preparations of blood monocytes, lymphocytes and thymocytes were cultured with different concentrations of ecteinascidin 743 for 48 h. Cell viability was assessed by DNA analysis and propidium iodide (PI) staining in Flow cytometry.
# A kinetics analysis of the cytotoxic effect of ecteinascidin 743 was performed in the presence of M-CSF. Cells were treated with M-CSF (20 ng/ml) and different concentrations of ecteinascidin 743. Samples were collected at the indicated times and tested for DNA analysis.
# Viability was assessed by PI staining and analyzed by Flow Cytometry.
# [2] = tested on: CCL2; test: CCL2 production by LPS-stimulated monocytes (ELISA); type: cell-based, human; settings: 24 h-incubation
# Method: Supernatants of untreated cells or cells treated with ecteinascidin 743 or other anti-neoplastic agents were collected after 24 h culture and frozen. Monocytes, macrophages and TAM were stimulated with 100 ng/ml LPS to induce maximal cytokine production. Determination of cytokines CCL2, TNF and IL-6 was measured by specific ELISA following the manufacturer's instructions.
# Monocytes and in vitro differentiated macrophages were stimulated with LPS (100 ng/ml). After 1 h LPS stimulation they were treated with ecteinascidin 743. After 16 h incubation, cell supernatants were harvested and tested in ELISA. Under these treatment conditions cell viability was usually >85% for concentrations up to 5 nM. […] Mean inhibition at 5 nM, for monocytes, was 65% (range 50-80%, n=5) and was 50% (range 25-75%, n=5) for in vitro differentiated macrophages. Results are mean+/−SE of 3-5 experiments
# Similar results were obtained when monocytes were stimulated with LPS (100 ng/ ml) and treated with ET743 and the other ecteinascidin compounds, although the overall inhibition was less marked compared with the previous experiment where the tumor supernantant was used as CCL2-inducing stimulus.
# CCL2 and TNF production by LPS-stimulated monocytes treated with the indicated doses of the anti-tumor agents was also tested. Cell supernatants were harvested after 24 h-incubation and tested in ELISA. […] None of these compounds interfered with the production of TNF.
# A major finding of our work is the inhibitory activity of ecteinascidin 743 on the production of inflammatory cytokines. Among various inflammatory cytokines produced by monocyte/macrophages we have tested IL-6, TNF and the chemokine CCL2. CCL2 is a chemokine attracting monocytes and other leukocyte subsets, and is produced both by monocyte/macrophages and several tumour cells. It has been described that ovarian adenocarcinoma cells produce huge amounts of CCL2 and that their levels correlate with the macrophage content of tumours. CCL2 is therefore one of the most important factors regulating monocyte/macrophages recruitment at the tumour site. […] Thus, lower levels of CCL2 by TAM and tumour cells are likely to reduce the number of macrophages recruited at the tumour site. In the above described in vitro experiments ecteinascidin 743 was present throughout the 16-h culture period. We also checked whether a shorter in vitro exposure to ecteinascidin 743 was sufficient to affect cytokine production. Monocytes exposed to ecteinascidin 743 were washed after 1 hour culture and replaced in fresh medium.
# [3] = tested on: CCL2; test: CCL2 production induced by exposure of monocytes to tumor cell supernatants; type: cell-based, human
# Method: We also tested five other ecteinascidin compounds (Table 2) for their capacity to inhibit the production of CCL2 by human monocytes in vitro. […] The extent of inhibition of ET637 Derivative A was even more pronouced compared to ET743. In Table 2 is shown that the production of CCL2, induced by exposure of monocytes to tumor cell supernatants, is inhibited up to 80% and 97% at 2.5 and 5 nM, respectively, in two different donors. In the same experiment ET743 inhibited between 30% and 70%.
smiles,measurement,setting,value
"N.N.[Cl][Pt][Cl] [Cisplatin, reference compound]",toxicity on monocytes,[1]; very high concentrations (40 μM),Significant toxicity
same,effect on CCL2 production by LPS-stimulated monocytes,[2]; 10 μM,reduced CCL2 production
"COc1cccc2c1C(=O)c1c(O)c3c(c(O)c1C2=O)C[C@@](O)(C(=O)CO)C[C@@H]3O[C@H]1C[C@H](N)[C@H](O)[C@H](C)O1 [Doxorubicin, reference compound]",effect on CCL2 production by LPS-stimulated monocytes,[2]; indicated doses (FIG. 9B),ineffective
COc1c(C)cc2c(c1O)C1C3[C@@H]4SCC(=O)C(=O)OC[C@@H](c5c6c(c(C)c(OC(C)=O)c54)OCO6)N3[C@@H](O)[C@H](C2)N1C (some centres unmarked) [ET594],"% inhibition of CCL2 production, Donor A",[3]; 5 nM,25%
same,"% inhibition of CCL2 production, Donor A",[3]; 10 nM,25%
COc1cc2c(cc1O)CCN[C@]21CS[C@@H]2c3c(OC(C)=O)c(C)c4c(c3[C@H](COC1=O)N1C[C@@H]3Cc5cc(C)c(OC)c(O)c5[C@H]([C@H]21)N3C)OCO4 [ET745],inhibition at 0.005 µM,"[3]; Homo sapiens, Monocyte, read-out: % inhibition of CCL2 production, Donor A",23%
"CC(=O)O[C@H]1C(=O)[C@@]2(C)[C@H]([C@H](OC(=O)c3ccccc3)[C@]3(O)C[C@H](OC(=O)[C@H](O)[C@@H](NC(=O)c4ccccc4)c4ccccc4)C(C)=C1C3(C)C)[C@]1(OC(C)=O)CO[C@@H]1C[C@@H]2O [Taxol, reference compound]",toxicity on monocytes,[1]; 300 nM,ineffective
same,effect on CCL2 production by LPS-stimulated monocytes,[2]; indicated doses (FIG. 9B),ineffective
